{"source": "patent US9079974B2", "about": "“GH-RH analogs with potent agonistic effects” (The University of Miami, priority 2011, dated 2015)", "key": {"[1]": {"test_system": "superfused rat pituitary cells", "experiment": "GH release in superfused rat pituitary cell system", "type": "cell-based", "details": "1 nM", "method": "Growth hormone releasing is assayed by using a superfused rat pituitary cell system as described in S. Vigh and A. V. Schally, Peptides 5, Suppl: 241-347, 1984, which is incorporated by reference herein. The new synthetic peptide analogs of hGH-RH P20356 and JI-38 as control are administered for 3 minutes (1 mL perfusate) at 1 nM concentration as shown below. Fractions of 1 ml are collected and the GH content in each is determined by ELISA. […] Effect of hGH-RH analogs (1 nM) on the GH release in superfused rat pituitary cell system\nPituitary cells from 2 male rates were used for each channel of the superfusion system. The cells were exposed to 3-min pulses of the new GHRH agonists or to JI-38 as standard every 30 min. Outflowing samples of each channel (1 ml) were collected every 3 min, and GH levels were determined by ELISA."}, "[2]": {"test_system": "GH release", "experiment": "In vivo GH release after subcutaneous administration", "details": "rat, s.c.", "method": "Blood samples are taken from the jugular vein; 5, 15 and 30 minutes or only 15 and 30 minutes after the injection. The blood samples are centrifuged, plasma is removed and the GH level is measured by ELISA. The results are summarized in terms of potency in Table 9."}}, "note": "“Also recorded” adds a separate entry of the source. Square brackets hold non-standard residues; d marks the D form. Peptide text beside a SMILES is read from it. * marks the point of attachment. NMeY = CN[C@@H](Cc1ccc(O)cc1)C(=O)O; Agmatine = N=C(N)NCCCCN*; Nle = CCCC[C@H](N)C(=O)O; Orn = NCCC[C@H](N)C(=O)O; Abu = CC[C@H](N)C(=O)O", "data": [{"smiles": "CCCC[C@H](NC(=O)[C@@H](NC(=O)[C@H](CC(=O)O)NC(=O)[C@H](CCC(N)=O)NC(=O)[C@H](CC(C)C)NC(=O)[C@H](CC(C)C)NC(=O)[C@H](CCCN)NC(=O)[C@H](CCCNC(=N)N)NC(=O)[C@H](C)NC(=O)[C@H](CO)NC(=O)[C@H](CC(C)C)NC(=O)[C@H](CCC(N)=O)NC(=O)[C@H](CC)NC(=O)[C@H](CC(C)C)NC(=O)[C@@H](NC(=O)[C@H](CCCN)NC(=O)[C@H](CCCNC(=N)N)NC(=O)[C@H](Cc1ccc(O)cc1)NC(=O)[C@H](CO)NC(=O)[C@H](CCC(N)=O)NC(=O)[C@@H](NC(=O)[C@H](Cc1ccccc1)NC(=O)[C@@H](NC(=O)[C@H](C)NC(=O)[C@H](CC(=O)O)NC(=O)[C@H](C)NC(=O)[C@H](Cc1ccc(O)cc1)NC)[C@@H](C)CC)[C@@H](C)O)C(C)C)[C@@H](C)CC)C(=O)N[C@@H](CC(=O)O)C(=O)NCCCCNC(=N)N", "note": "[Peptide P-20356, [N—Me-Tyr^1, Gln^8, Orn^12, Abu^15, Orn^21, Nle^27, Asp^28, Agm^29]hGH-RH(1-29)] (H-[NMeY]ADAIFTQSYR[Orn]VL[Abu]QLSAR[Orn]LLQDI[Nle]D-Agmatine)", "values": [{"measurement": "times more potent in vitro than JI-38 (GH release)", "setting": "[1]", "value": "about 3 times"}, {"measurement": "GH response after subcutaneous administration (in words)", "setting": "[2]", "value": "unusually high responses; also recorded: especially greater growth hormone levels than hGH-RH or JI-38"}]}]}
